Reference: publication PMC4932917, “Structural basis for acyl-group discrimination by human Gcn5L2” (Acta Crystallographica. Section D, Structural Biology, 2016)

Biological target: T1, human Gcn5L2 (hsGcn5L2) (Homo sapiens, UniProt Q92830)
T1 construct: gene KAT2A; catalytic domain, amino acids 497–662
Assay: X-ray crystal structure ([…] Å); Ki from enzyme-coupled acetylation assay on purified catalytic domain
Type: biochemical

T1 sequence (Q92830 497-662): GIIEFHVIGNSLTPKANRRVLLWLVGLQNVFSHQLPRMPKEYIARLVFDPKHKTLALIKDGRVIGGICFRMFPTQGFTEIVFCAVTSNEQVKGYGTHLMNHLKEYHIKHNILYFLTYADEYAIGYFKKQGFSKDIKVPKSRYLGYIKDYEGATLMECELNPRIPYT

Ki: 5.6 ± 0.7 µM
SMILES: CCCC(=O)SCCNC(=O)CCNC(=O)[C@H](O)C(C)(C)COP(=O)(O)OP(=O)(O)OC[C@H]1O[C@@H](n2cnc3c(N)ncnc32)[C@H](O)[C@@H]1OP(=O)(O)O [butyryl-CoA]
